Reference: ChEMBL document CHEMBL4706656, “Ifenprodil Stereoisomers: Synthesis, Absolute Configuration, and Correlation with Biological Activity” (J Med Chem, 2021)

Legend:
[1] = biological target: T1, Alpha-1A adrenergic receptor (Homo sapiens, UniProt P35348); experiment: Displacement of [3H]prazosin from alpha-1A adrenergic receptor (unknown origin)
T1 sequence (P35348 whole entry): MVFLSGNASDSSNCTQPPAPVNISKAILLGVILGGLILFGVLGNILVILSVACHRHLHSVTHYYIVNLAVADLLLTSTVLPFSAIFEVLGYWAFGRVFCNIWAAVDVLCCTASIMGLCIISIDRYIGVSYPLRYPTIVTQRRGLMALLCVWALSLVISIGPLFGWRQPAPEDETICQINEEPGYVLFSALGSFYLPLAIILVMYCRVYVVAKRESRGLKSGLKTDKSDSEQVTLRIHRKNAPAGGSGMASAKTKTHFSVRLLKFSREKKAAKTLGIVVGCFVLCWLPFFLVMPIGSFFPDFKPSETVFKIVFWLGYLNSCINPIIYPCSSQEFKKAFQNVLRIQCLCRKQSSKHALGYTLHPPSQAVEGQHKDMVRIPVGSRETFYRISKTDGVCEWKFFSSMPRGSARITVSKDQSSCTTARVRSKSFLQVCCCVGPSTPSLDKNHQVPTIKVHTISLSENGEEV

[2] = biological target: T2, Alpha-2A adrenergic receptor (Homo sapiens, UniProt P08913); experiment: Displacement of [3H]RX821002 from alpha-2A adrenergic receptor (unknown origin)
T2 sequence (P08913 whole entry): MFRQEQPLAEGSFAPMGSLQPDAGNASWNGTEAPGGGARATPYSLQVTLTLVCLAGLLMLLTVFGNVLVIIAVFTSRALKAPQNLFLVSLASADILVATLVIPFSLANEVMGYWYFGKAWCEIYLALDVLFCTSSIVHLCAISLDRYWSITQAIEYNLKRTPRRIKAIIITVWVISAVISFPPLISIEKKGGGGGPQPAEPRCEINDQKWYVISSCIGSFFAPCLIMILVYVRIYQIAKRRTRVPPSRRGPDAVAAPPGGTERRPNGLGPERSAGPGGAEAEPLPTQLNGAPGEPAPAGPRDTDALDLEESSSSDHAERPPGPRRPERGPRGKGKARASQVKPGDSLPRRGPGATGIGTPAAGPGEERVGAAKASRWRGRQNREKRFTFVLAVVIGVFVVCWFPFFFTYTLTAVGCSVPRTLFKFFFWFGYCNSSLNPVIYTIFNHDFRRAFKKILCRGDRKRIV

[3] = biological target: T3, 5-hydroxytryptamine receptor 1A (Homo sapiens, UniProt P08908); experiment: Displacement of [3H]-8-OH-DPAT from human 5-HT1A receptor expressed in HEK293 cells incubated for 1 hr by radioligand binding assay; type: cell-based
T3 sequence (P08908 whole entry): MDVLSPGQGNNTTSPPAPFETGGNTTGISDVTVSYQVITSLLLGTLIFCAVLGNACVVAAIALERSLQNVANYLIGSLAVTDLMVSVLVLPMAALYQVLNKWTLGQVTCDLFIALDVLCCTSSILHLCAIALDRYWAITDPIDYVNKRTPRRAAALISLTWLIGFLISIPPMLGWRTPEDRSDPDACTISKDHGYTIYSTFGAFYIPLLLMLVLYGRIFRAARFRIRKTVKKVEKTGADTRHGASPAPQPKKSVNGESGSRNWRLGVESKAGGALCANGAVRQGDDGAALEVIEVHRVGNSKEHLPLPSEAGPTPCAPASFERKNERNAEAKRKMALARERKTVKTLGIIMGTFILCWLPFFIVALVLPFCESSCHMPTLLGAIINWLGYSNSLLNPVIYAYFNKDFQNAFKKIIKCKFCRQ

[4] = biological target: 5-hydroxytryptamine receptor 2A (Homo sapiens, UniProt P28223); experiment: Displacement of [3H]ketanserin from human 5-HT2A receptor expressed in CHO-K1 cells incubated for 1 hr by radioligand binding assay; type: cell-based
[5] = biological target: 5-hydroxytryptamine receptor 2B (Homo sapiens, UniProt P41595); experiment: Binding affinity to 5-HT2B receptor (unknown origin) incubated for 1 hr by radioligand binding assay
[6] = biological target: T4, 5-hydroxytryptamine receptor 2C (Homo sapiens, UniProt P28335); experiment: Binding affinity to 5-HT2C receptor (unknown origin) incubated for 1 hr by radioligand binding assay
T4 sequence (P28335 whole entry): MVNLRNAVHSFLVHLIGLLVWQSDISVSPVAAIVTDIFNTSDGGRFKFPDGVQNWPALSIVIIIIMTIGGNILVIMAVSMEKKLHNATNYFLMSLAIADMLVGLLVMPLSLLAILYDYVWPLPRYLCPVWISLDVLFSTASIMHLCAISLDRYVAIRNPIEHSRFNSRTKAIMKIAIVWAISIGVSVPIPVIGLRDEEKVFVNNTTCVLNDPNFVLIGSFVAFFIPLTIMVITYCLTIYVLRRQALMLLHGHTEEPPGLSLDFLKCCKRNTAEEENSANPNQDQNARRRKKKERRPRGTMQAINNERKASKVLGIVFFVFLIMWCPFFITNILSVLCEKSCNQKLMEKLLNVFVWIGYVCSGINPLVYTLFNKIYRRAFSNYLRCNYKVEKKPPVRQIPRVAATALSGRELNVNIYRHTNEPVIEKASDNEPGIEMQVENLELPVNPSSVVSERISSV

[7] = biological target: 5-hydroxytryptamine receptor 6 (Homo sapiens, UniProt P50406); experiment: Displacement of [3H]LSD from human 5-HT6 receptor expressed in HEK293 cells incubated for 1 hr by radioligand binding assay; type: cell-based
[8] = biological target: 5-hydroxytryptamine receptor 7 (Homo sapiens, UniProt P34969); experiment: Displacement of [3H]-5-CT from human 5-HT7B receptor expressed in HEK293 cells incubated for 1 hr by radioligand binding assay; type: cell-based
Sequence of 5-hydroxytryptamine receptor 7 (P34969 whole entry): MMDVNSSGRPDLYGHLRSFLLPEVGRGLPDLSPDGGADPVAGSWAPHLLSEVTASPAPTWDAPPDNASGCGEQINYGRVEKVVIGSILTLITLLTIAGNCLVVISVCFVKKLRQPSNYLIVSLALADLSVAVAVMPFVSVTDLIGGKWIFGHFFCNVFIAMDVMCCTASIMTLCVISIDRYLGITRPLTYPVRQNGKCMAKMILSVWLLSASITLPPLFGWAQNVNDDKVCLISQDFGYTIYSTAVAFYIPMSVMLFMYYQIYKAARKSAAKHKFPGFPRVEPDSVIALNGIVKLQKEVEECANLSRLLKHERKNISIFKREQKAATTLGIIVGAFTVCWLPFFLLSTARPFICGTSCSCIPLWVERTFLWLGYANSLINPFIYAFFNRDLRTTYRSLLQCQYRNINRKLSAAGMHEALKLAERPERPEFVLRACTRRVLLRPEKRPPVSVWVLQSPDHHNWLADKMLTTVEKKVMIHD

Sequence of 5-hydroxytryptamine receptor 2A (P28223 whole entry): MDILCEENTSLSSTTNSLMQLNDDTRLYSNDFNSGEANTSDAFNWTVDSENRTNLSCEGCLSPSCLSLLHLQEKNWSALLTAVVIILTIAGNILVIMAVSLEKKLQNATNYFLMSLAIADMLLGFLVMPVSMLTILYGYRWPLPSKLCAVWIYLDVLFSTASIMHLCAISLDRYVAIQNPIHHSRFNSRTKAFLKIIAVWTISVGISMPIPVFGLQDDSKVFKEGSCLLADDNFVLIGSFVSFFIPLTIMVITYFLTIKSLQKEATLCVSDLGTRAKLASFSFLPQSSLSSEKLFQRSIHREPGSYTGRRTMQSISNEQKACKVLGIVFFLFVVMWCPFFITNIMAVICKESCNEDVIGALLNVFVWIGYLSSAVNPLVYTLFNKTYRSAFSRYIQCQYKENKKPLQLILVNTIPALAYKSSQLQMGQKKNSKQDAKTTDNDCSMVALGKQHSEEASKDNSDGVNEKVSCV
Sequence of 5-hydroxytryptamine receptor 6 (P50406 whole entry): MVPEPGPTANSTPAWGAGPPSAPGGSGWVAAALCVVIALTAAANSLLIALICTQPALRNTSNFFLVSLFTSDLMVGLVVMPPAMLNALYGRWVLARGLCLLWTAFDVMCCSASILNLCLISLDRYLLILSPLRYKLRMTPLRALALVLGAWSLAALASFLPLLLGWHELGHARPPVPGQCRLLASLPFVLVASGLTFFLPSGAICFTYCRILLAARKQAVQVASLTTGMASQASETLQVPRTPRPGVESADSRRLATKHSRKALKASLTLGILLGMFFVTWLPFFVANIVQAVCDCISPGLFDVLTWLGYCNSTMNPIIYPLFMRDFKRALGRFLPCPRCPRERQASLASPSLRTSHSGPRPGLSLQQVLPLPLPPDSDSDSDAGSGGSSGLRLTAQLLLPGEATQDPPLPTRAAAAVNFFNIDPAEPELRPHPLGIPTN
Sequence of 5-hydroxytryptamine receptor 2B (P41595 whole entry): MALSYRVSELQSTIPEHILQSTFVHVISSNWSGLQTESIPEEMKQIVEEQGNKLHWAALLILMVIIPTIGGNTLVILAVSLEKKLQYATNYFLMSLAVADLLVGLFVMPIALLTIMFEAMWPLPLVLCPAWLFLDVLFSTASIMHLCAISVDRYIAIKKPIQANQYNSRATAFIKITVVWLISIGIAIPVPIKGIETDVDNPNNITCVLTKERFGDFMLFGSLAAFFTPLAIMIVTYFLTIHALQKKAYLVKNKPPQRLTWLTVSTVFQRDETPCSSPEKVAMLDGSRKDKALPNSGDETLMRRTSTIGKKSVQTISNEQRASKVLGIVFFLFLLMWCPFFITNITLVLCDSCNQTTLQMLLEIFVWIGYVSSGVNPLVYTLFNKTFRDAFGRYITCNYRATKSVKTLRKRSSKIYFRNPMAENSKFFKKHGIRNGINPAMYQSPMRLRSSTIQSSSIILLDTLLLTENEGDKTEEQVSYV

| Ki [1] [nM] | Ki [2] [nM] | Ki [3] [nM] | Ki [4] [nM] | Ki [5] [nM] | Ki [6] [nM] | Ki [7] [nM] | Ki [8] [nM] | SMILES |
| --- | --- | --- | --- | --- | --- | --- | --- | --- |
| 370 | 5500 | > 1000 | 338 | 708 | > 10000 | > 10000 | > 10000 | C[C@H]([C@H](O)c1ccc(O)cc1)N1CCC(Cc2ccccc2)CC1 |
| 530 | 6100 | > 1000 | 369 | > 1000 | > 10000 | > 10000 | > 10000 | C[C@@H]([C@@H](O)c1ccc(O)cc1)N1CCC(Cc2ccccc2)CC1 [(S)-IFENPRODIL] |
| 140 | 1600 | > 1000 | 421 | 95 | 748 | > 1000 | 513 | C[C@@H]([C@H](O)c1ccc(O)cc1)N1CCC(Cc2ccccc2)CC1 [(R,S)-IFENPRODIL] |
| 27 | 2300 | 46 | 510 | 66 | > 10000 | > 1000 | > 10000 | C[C@H]([C@@H](O)c1ccc(O)cc1)N1CCC(Cc2ccccc2)CC1 [(S,R)-IFENPRODIL] |
